# Reference: ChEMBL document CHEMBL1201862, “PubChem BioAssay data set” (2004)
#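 How tested: cells in 96-well plates exposed to compound for 48 hours at five concentrations. GI50: concentration for 50% inhibition of growth.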 Active and inactive are the calls of the source. Cut-off read from the data, not from the text of the source: active = GI50 up to about 1.1 µM and inactive = higher.
# Assays:
# SR = assay: growth of human tumour cells (NCI), 48 h
# NCI/ADR-RES = assay: growth of human tumour cells (NCI), 48 h
SMILES,GI50 (SR),GI50 (NCI/ADR-RES)
CN(C)C(=O)OC1C(=O)N(C)c2ccc(Cl)cc2C2(c3ccccc3)N1C2(Cl)Cl (configuration not stated),49.7 µM (inactive),
CCc1cc(=O)n(/C(C)=C/c2ccccc2)n1C,,> 100 µM (inactive)
